In publication PMC6495379, “Reiterative Synthesis by the Ribosome and Recognition of the N-Terminal Formyl Group by Biosynthetic Machinery Contribute to Evolutionary Conservation of the Length of Antibiotic Microcin C Peptide Precursor” (mBio, 2019):
* marks the point of attachment. For = O=C*

How the values were obtained:
[1] = test system: E. coli MccB; assay: In vitro adenylation of MccA peptides by MccB, HPLC read-out; type: biochemical, Escherichia coli; settings: 500 μM peptide, 5 μM MccB, 28°C, 20 min, HPLC 260 nm; for Yield of adenylated peptide (unformylated peptides): ATP
Description: In previous work, it was shown that E. coli MccB is able to modify a wide range of substrates in vivo and in vitro, including MBP protein with attached A7 peptide ([14]). To test MccB activity on elongated substrates encoded by pA11 and pA15, we incubated purified MccB with ATP and chemically synthesized A11 and A15 peptides and measured adenylated peptide yields by high-pressure liquid chromatography (HPLC) (Fig. 6). […] We next repeated the experiment with N-terminally formylated versions of each peptide that correspond to the products of ribosomal synthesis. […] We conclude that under our conditions, the presence of the formyl group on the N-terminal methionine residue selectively amplified the yields of MccA heptapeptide adenylation compared to adenylation yields of longer peptides A11 and A15.
FIG 6 In vitro adenylation of MccA peptides of different lengths by MccB. HPLC traces (260 nm) showing product formation after incubation of equal molar amounts of A7 (MRTGNAN), A11 (MGGGMRTGNAN), and A15 (MASTAGGGMRTGNAN) peptides and their N-terminally formylated variant peptides (marked with the f prefix) with MccB in the reaction buffer for 20 min at 28°C.
For adenylation efficiency measurements, 500 μM peptide was incubated with 5 μM MccB at 28°C for 20 min, and then the reaction was quenched with 0,1% TFA and analyzed using C18 reversed-phase chromatography (Symmetry C18, 5 μm, 4.6 mm by 150 mm; Waters). A 0% to 15% linear gradient of acetonitrile in 0.1% TFA was applied for elution. The identities of the compounds in the chromatographic fractions were confirmed by MALDI-TOF MS.

[2] = test system: some strains of E. coli; settings: cited from earlier work
From the text: Thus, the minimal set of three genes in an mcc cluster, encoding the precursor peptide, the adenylating enzyme, and the export pump protein, should be sufficient for production of McC-like antibacterial compounds. Bioinformatics searches reveal that genes coding for MccB-like proteins can be found in various bacteria that are phylogenetically distant from E. coli ([10]).

[3] = formylated versus unformylated peptide

MASTAGGGMRTGNAN [A15, 15-amino-acid MccA-based peptide […]]
Decrease in adenylated product yield on N-terminal formylation, compared to the unformylated peptide [1, 3]: ~3 fold
Yield of adenylated peptide (unformylated peptides) [1]: comparable yields

MGGGMRTGNAN [A11, 11-amino-acid MccA-based peptide […]]
Increase in adenylated product yield on N-terminal formylation, compared to the unformylated peptide [1, 3]: ~2 fold
Yield of adenylated peptide (unformylated peptides) [1]: comparable yields

MRTGNAN [A7, 7-amino-acid McC precursor peptide MRTGNAN, chemically synthesized]
Increase in adenylated product yield on N-terminal formylation, compared to the unformylated peptide [1, 3]: approximately 8 fold
Increase in adenylated product yield on N-terminal formylation, compared to the unformylated peptide ([1]; formylated versus unformylated peptide, listed as heptapeptide MccA): ~10 fold
Yield of adenylated peptide (unformylated peptides) [1]: comparable yields

Microcin C (For-MRTGNAN-{adenylate (N-P bond, aminopropyl on phosphoramidate)}) [McC, heptapeptide adenylate antibiotic, formylated, with aminopropyl on the phosphoramidate]
Increase of toxicity of McC by the aminopropyl moiety [2]: 4- to 10 fold
